What was measured:
Test in all cases: Checkerboard MIC assay, FICI
Conditions in all cases: combination with Compound 1
A. flavus ATCC 64025 = type: cell-based, Aspergillus flavus
Description: (§1) The following assay was used to determine the minimum inhibitory concentration (MIC) and fractional inhibitory concentration index (FICI) for combinations of an antifungal agent and a glycopeptide antibacterial agent. This assay and methods for calculating FICI are well known in the art. See, for example, Eliopoulos, E. G. and R. Moellering, Jr. “Antimicrobial Combinations” in Antibiotics in Laboratory Medicine, edited by V. Lorian, 4th Ed., Williams & Wilkins, Baltimore, MD, pp. 330-396 (1996); […] et al., Antimicrobial Agents and Chemotherapy 47(4):1416-1418 (2003); or […] et al., Antimicrobial Agents and Chemotherapy 46(10):3323-3326 (2002). […] The MIC of the glycopeptide antibacterial agent determined from this experiment was used in FIC calculations. […]

[1] = system: F. moniliforme ATCC 38159; type: cell-based, Fusarium moniliforme
Description: as §1

P. boydii ATCC 38283 = type: cell-based, Pseudallescheria boydii
Description: as §1

| SMILES | FICI (A. flavus ATCC 64025) | FICI [1] | FICI (P. boydii ATCC 38283) |
| --- | --- | --- | --- |
| C[C@@H]1[C@H](O)[C@@H](C)/C=C/C=C/C=C/C=C/C=C/C=C/C=C/[C@H](O[C@@H]2O[C@H](C)[C@@H](O)[C@H](N)[C@@H]2O)C[C@@H]2O[C@](O)(C[C@@H](O)C[C@@H](O)[C@H](O)CC[C@@H](O)C[C@@H](O)CC(=O)O[C@H]1C)C[C@H](O)[C@H]2C(=O)O [Amphotericin B] | 0.51 | 0.53 | 0.38 |
| C[C@@H]1[C@H](O)[C@@H](C)/C=C/C=C/CC/C=C/C=C/C=C/C=C/C(O[C@H]2O[C@H](C)[C@@H](O)[C@H](N)[C@@H]2O)CC2O[C@](O)(CC(O)C(O)CCC(O)CC(O)CC(O)CC(=O)O[C@H]1C)CC(O)C2C(=O)O (stereo partly drawn) [Nystatin] | 0.51 | 0.51 | 0.38 |

Reference: patent US7521418B2, “Use of a polyene macrolide antifungal agent in combination with a glycopeptide antibacterial agent” (Theravance, Inc., priority 2003, dated 2009)
